Data: the supplement of paper PMC10307832

Tests used:
AZ505 + Trametinib = compound: C1CCC(CC1)N(CCNCCC2=C3C(=C(C=C2)O)NC(=O)CO3)C(=O)CCNCCC4=CC(=C(C=C4)Cl)Cl [AZ505] + CC(=O)Nc1cccc(-n2c(=O)n(C3CC3)c(=O)c3c(Nc4ccc(I)cc4F)n(C)c(=O)c(C)c32)c1 [Trametinib] (partner 0.02 µM); assay: relative viability (nuclei count vs DMSO), 5 days (fraction); higher = more cells survive
Procedure, shortened: (§1)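 Five library-drug doses in √10 steps were combined with a fixed anchor-drug dose, or a single drug was given alone, by pin tool to lung cancer cell lines in 1536-well plates the day after seeding. Nuclei were stained and counted after 5 days. Relative viability is the nuclei count in treated wells over that in vehicle wells, taken as the median of duplicate plates.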

AZ505 + AZD7762 = compound: C1CCC(CC1)N(CCNCCC2=C3C(=C(C=C2)O)NC(=O)CO3)C(=O)CCNCCC4=CC(=C(C=C4)Cl)Cl [AZ505] + NC(=O)Nc1cc(-c2cccc(F)c2)sc1C(=O)N[C@H]1CCCNC1 [AZD7762] (partner 0.2 µM); assay: as above
Procedure, shortened: as §1

Row | Cell Line | relative viability (AZ505 + Trametinib; first compound 0.08 µM) | relative viability (AZ505 + Trametinib; first compound 0.253 µM) | relative viability (AZ505 + Trametinib; first compound 0.8 µM) | relative viability (AZ505 + Trametinib; first compound 2.53 µM) | relative viability (AZ505 + Trametinib; first compound 8 µM) | relative viability (AZ505 + AZD7762; first compound 0.08 µM) | relative viability (AZ505 + AZD7762; first compound 0.253 µM) | relative viability (AZ505 + AZD7762; first compound 0.8 µM) | relative viability (AZ505 + AZD7762; first compound 2.53 µM) | relative viability (AZ505 + AZD7762; first compound 8 µM)
1 | NCI-H661 | 0.603 | 0.596 | 0.537 | 0.577 | 0.541 |  |  |  |  | 
2 | NCI-H727 | 0.418 | 0.411 | 0.365 | 0.391 | 0.358 | 0.661 | 0.418 | 0.582 | 0.512 | 0.76
3 | NCI-H838 | 0.487 | 0.464 | 0.505 | 0.523 | 0.479 | 0.888 | 0.955 | 0.936 | 0.951 | 0.985
4 | NCI-H1355 | 0.419 | 0.394 | 0.446 | 0.445 | 0.44 | 0.677 | 0.474 | 0.757 | 0.689 | 0.858
5 | NCI-H1395 | 1.06 |  | 0.991 | 1.01 | 1.14 | 0.407 |  | 0.413 | 0.386 | 0.382
6 | NCI-H1437 | 0.504 | 0.472 | 0.473 | 0.662 | 0.568 | 1.07 | 1.17 | 1.08 | 1.14 | 1.17
7 | NCI-H1648 |  | 0.463 | 0.528 | 0.576 | 0.497 |  | 0.755 | 0.921 | 0.818 | 0.825
8 | NCI-H1650 | 0.48 | 0.686 | 0.71 | 0.556 | 0.626 |  |  |  |  | 
9 | NCI-H1651 | 0.814 | 0.863 | 0.834 | 0.817 | 0.829 | 0.43 | 0.412 | 0.472 | 0.467 | 0.48
10 | NCI-H1666 | 0.878 | 0.873 | 0.83 | 0.838 | 0.781 | 0.791 | 0.853 | 0.844 | 0.852 | 0.946
11 | NCI-H1703 |  |  |  |  |  | 0.106 |  | 0.12 | 0.114 | 0.134
12 | NCI-H1734 | 0.65 | 0.647 | 0.652 | 0.675 | 0.691 | 0.519 | 0.333 | 0.526 | 0.494 | 0.576
13 | NCI-H1755 | 0.728 | 0.785 | 0.749 | 0.741 | 0.746 | 0.348 | 0.471 | 0.495 | 0.421 | 0.432
14 | NCI-H1792 | 0.426 | 0.426 | 0.482 | 0.422 | 0.435 | 0.627 | 0.247 | 0.544 | 0.642 | 0.833
15 | NCI-H1793 | 0.382 | 0.372 | 0.416 | 0.428 | 0.434 | 0.466 | 0.513 | 0.574 | 0.404 | 0.407
16 | NCI-H1915 | 0.294 | 0.303 | 0.236 | 0.266 | 0.301 | 0.707 | 0.753 | 0.7 | 0.727 | 0.716
17 | NCI-H1944 | 0.377 | 0.391 | 0.414 | 0.444 | 0.386 | 0.455 | 0.519 | 0.727 | 0.389 | 0.474
18 | NCI-H1975 | 0.351 | 0.315 | 0.377 | 0.356 | 0.332 | 0.674 | 0.614 | 0.765 | 0.703 | 0.81
